Reference: patent EP4663635A1, “CRYSTALLINE FORM OF SULFONAMIDE DERIVATIVE AND PREPARATION METHOD THEREFOR” (Jiangsu Hengrui Pharmaceuticals Co., Ltd., priority 2023, dated 2024)
Each block holds one molecule with its values, some of them ahead of it.

Columns and labels:
ZR-75-1 = assay: Anti-ZR-75-1 proliferation assay (CellTiter-Glo); type: cell-based; conditions: CTG assay on day 14
Excerpt: • 1. ZR-75-1 (ATCC CRL1500) • 2. 1640 medium (Gibco, 22400-089) • 3. 0.25% trypsin-EDTA (1×) (Gibco, 25200-072) • 4. Penicillin-streptomycin (Gibco, 15140-122) • 5. DPBS (1×) (Gibco, 14190-144) • 6. FBS (Gibco, 10091148) • 7. Assay plate, 96-well, black with clear bottom (Corning, 3603) • 8. 96-well non-treated round-bottom plate (JET BIOFIL, TCP-002-096) • 9. CellTiter-Glo buffer (Promega, G756B) • 10. CellTiter-Glo substrate (Promega, G755B) • 11. Automatic cell counter (Countstar, IC1000) • 12. Thermostatic incubator (Thermo, I160) • 13. PHERAstar FS (BMG labtech, PHERAstar FS)
• a. The state of cells was observed under a microscope to make sure that the cell confluence was about 90%. • b. The cell supernatant was discarded. The cells were rinsed with DPBS once, and the DPBS was removed. The cells were digested with a proper amount of trypsin and left to stand at 37 °C for 5 min. • c. The digestion was stopped with an equal volume of 1640 medium containing 10% FBS, and the cell suspension was collected and centrifuged at 300 g for 3 min. The cells were suspended in a proper amount of fresh medium. • d. The resulting cell suspension was collected and cell counting was performed. • e. The cell suspension was diluted to 5 × 10^4 cells/mL, 50 µL/well with 1640 medium containing 10% FBS. Each well contained 2500 ZR-75-1 cells. • f. […]

KAT6A = target: T1, KAT6A (Homo sapiens, UniProt Q92794); assay: Enzymatic activity assay KAT6 (AlphaScreen method); type: biochemical; conditions: KAT enzyme 1.25 nM, Ac-CoA 1000 nM, H3 55 nM
T1 construct: purchased Chempartner (customized)
T1 sequence (Q92794 whole entry, species assumed): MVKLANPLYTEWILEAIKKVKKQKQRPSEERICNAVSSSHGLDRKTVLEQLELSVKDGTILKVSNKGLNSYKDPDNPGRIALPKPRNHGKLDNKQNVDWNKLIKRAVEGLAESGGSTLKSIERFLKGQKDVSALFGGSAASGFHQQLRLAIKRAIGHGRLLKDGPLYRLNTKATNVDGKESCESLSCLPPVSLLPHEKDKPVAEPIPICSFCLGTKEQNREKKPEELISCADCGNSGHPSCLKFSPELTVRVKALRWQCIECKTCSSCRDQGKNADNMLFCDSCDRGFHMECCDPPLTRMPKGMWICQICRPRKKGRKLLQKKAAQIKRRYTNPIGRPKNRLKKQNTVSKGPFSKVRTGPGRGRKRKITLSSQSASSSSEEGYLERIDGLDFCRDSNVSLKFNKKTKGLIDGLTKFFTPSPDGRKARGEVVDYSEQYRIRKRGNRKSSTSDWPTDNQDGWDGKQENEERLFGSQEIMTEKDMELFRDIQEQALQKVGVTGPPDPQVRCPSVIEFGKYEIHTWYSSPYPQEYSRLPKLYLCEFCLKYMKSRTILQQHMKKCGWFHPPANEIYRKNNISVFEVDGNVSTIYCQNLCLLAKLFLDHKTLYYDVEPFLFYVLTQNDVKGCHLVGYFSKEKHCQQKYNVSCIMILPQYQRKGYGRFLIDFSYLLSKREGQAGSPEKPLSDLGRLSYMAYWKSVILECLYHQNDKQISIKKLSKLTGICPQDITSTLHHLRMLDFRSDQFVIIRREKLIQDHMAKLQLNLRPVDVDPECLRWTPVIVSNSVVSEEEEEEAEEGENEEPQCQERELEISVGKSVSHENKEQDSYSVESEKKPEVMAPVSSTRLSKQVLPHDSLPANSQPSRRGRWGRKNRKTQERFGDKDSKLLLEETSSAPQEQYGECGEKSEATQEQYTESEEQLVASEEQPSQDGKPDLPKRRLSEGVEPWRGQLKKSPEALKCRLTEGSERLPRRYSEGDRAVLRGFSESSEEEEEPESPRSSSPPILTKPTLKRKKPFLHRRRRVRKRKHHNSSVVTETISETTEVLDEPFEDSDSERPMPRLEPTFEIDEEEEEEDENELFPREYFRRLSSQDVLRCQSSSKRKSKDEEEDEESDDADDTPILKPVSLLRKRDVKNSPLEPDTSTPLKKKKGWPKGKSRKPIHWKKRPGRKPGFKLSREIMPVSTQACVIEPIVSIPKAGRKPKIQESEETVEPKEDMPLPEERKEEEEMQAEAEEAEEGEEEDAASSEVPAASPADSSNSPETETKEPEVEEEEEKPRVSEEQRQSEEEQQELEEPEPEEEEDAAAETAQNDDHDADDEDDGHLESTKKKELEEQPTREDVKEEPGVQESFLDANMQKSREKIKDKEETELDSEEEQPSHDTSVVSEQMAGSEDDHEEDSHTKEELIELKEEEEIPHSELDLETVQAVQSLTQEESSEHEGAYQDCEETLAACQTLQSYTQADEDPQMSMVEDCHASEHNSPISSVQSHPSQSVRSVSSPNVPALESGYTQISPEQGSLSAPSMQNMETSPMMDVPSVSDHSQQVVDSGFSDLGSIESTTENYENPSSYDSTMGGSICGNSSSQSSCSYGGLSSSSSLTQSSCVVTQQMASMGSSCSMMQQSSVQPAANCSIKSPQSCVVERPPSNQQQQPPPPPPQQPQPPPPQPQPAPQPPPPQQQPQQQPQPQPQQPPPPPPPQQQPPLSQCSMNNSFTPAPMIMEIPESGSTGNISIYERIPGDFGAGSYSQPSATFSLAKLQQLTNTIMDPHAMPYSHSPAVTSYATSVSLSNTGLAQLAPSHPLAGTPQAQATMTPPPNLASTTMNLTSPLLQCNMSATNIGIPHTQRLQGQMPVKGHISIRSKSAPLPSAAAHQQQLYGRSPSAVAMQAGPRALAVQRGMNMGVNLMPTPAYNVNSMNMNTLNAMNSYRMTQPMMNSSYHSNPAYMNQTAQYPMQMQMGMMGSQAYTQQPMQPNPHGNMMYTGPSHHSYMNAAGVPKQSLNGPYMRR
Excerpt: • 1. KAT6A (customized by Chempartner) • 2. Ovalbumin (Sigma-Aldrich, A5378-5G) • 3. 2 M Tris-HCl solution, pH 7.8, sterile (Sangon, B548140-0500) • 4. 5 M NaCl solution (Sangon, B548121-0100) • 5. EDTA (0.5 M), pH 8.0, RNase-free (Thermofisher, AM9260G) • 6. Tween-20 (Sangon, A100777-0500) • 7. DTT, 1 M (Invitrogen, P2325) • 8. Acetyl coenzyme A (Ac-CoA, CAYMAN, Cat. No. 16160) • 9. Recombinant histone H3.1 biotinylated (human) (Active Motif 31696) • 10. 384-well plate, light gray (PerkinElmer, Cat. No. 6005350) • 11. Anacardic acid (MCE, Cat. No. HY-N2020) • 12. AlphaScreen streptavidin donor beads, 5 mg (PerkinElmer, 6760002) • 13. AlphaScreen protein A acceptor beads, 5 mg (PerkinElmer, 6760137M) • 14. Acetylated-lysine antibody #9441 (CST 9441S) • 15. PHERA star microplate reader (BMG labtech)
• a. 1× assay buffer: 100 mM Tris-HCl, pH 7.8; 15 mM NaCl; 1 mM EDTA; 0.01% tween-20; 1 mM DTT; 0.01% m/v ovalbumin. • b. KAT enzyme solution: 1.25 nM (final concentration), prepared in 1× assay buffer. • c. […]
The prepared enzyme solution was added to a 384-well plate at 3 µL/well, and 3 µL of 1× assay buffer was added to each well in columns 23 and 24 (Min). […] Plate reading was performed on the microplate reader, and AlphaScreen counts were recorded. Plotting was performed using the Graphpad software, and the IC50 values of the compounds were calculated. […]

[1] = Stability influencing factor study of crystal forms; type: physicochemical
Experimental: Free-state samples were spread out, left to stand in open flasks, and subjected to 30-day stability tests in light exposure (4500 Lux), high temperature (40 °C and 60 °C), and high humidity (RH 75% and RH 92.5%) conditions.

[2] = Long-term/accelerated stability of crystal forms; type: physicochemical
Experimental: Free-state samples were sealed in aluminum foil bags and left to stand in 25 °C/60% RH and 40 °C/75% RH conditions to test their stability.

[3] = Hygroscopicity study of crystal forms (DVS); type: physicochemical; conditions: for 0.0%RH-80.0%RH: DVS mass change, 25 °C; for Crystal form: crystal form after DVS test
Experimental: DVS refers to dynamic vapor sorption: The analysis was performed using SMS DVS Advantage; at 25 °C, the humidity was changed as follows: 50%-95%-0%-95%-50%, in steps of 10% (5% for the last step) (specific humidity ranges are shown in corresponding patterns, and those listed here were used in most cases); the criterion was dm/dt being not greater than 0.002%.
Surface Measurement Systems intrinsic DVS was adopted. At 25 °C, the crystal forms were tested in a humidity range of 0%-95%, with increments of 10%. The criterion was that each gradient mass change dM/dT is less than 0.002%, TMAX 360 min, two cycles.

IC50 (KAT6A): 0.3 nM
Structure (SMILES): COc1cccc(OC)c1S(=O)(=O)Nc1noc2cc(Cn3cccn3)c3c(c12)OCCC3 [Compound of formula 1, N-(5-((1H-pyrazol-1-yl)methyl)-3,4-dihydro-2H-chromeno[8,7-d]isoxazol-9-yl)-2,6-dimethoxybenzenesulfonamide]
Maximum inhibition rate/Imax% (ZR-75-1): 96%
IC50 (ZR-75-1; Homo sapiens, ZR-75-1, 336 h): 0.4 nM

Purity% ([1]; 40 °C, 5 days): 99.1%
Purity% ([1]; 40 °C, 10 days): 99.1%
Purity% ([1]; 40 °C, 30 days): 99.1%
Purity% ([1]; 60 °C, 7 days): 99.1%
Purity% ([1]; 60 °C, 14 days): 99.1%
Purity% ([1]; 60 °C, 30 days): 99.1%
Purity% ([1]; 75% RH, 7 days): 99.1%
Purity% ([1]; 75% RH, 14 days): 99.1%
Purity% ([1]; 75% RH, 30 days): 99.1%
Purity% ([1]; 92.5% RH, 7 days): 99.1%
Purity% ([1]; 92.5% RH, 14 days): 99.1%
Purity% ([1]; 92.5% RH, 30 days): 99.1%
Purity% ([1]; Initial, 0 days): 99.1%
Purity% ([1]; Light exposure (4500 Lux), 7 days): 99.0%
Purity% ([1]; Light exposure (4500 Lux), 14 days): 98.9%
Purity% ([1]; Light exposure (4500 Lux), 30 days): 98.9%
Crystal form ([2]; 25 °C/60%RH): No change
Purity% ([2]; 25 °C/60%RH, 1 month): 99.1%
Purity% ([2]; 25 °C/60%RH, 2 months): 99.1%
Purity% ([2]; 25 °C/60%RH, 3 months): 99.1%
Purity% ([2]; 25 °C/60%RH, 9 months): 99.1%
Purity% ([2]; 25 °C/60%RH, 14 days): 99.1%
Purity% ([2]; 25 °C/60%RH, Initial): 99.1%
Crystal form ([2]; 40 °C/75%RH): No change
Purity% ([2]; 40 °C/75%RH, 1 month): 99.1%
Purity% ([2]; 40 °C/75%RH, 2 months): 99.1%
Purity% ([2]; 40 °C/75%RH, 3 months): 99.1%
Purity% ([2]; 40 °C/75%RH, 9 months): 99.1%
Purity% ([2]; 40 °C/75%RH, 14 days): 99.1%
Purity% ([2]; 40 °C/75%RH, Initial): 99.1%
0.0%RH-80.0%RH [3]: 0.10%
Crystal form [3]: No change
Structure (SMILES): COc1cccc(OC)c1S(=O)(=O)Nc1noc2cc(Cn3cccn3)c3c(c12)OCCC3 [Crystal form A, N-(5-((1H-pyrazol-1-yl)methyl)-3,4-dihydro-2H-chromeno[8,7-d]isoxazol-9-yl)-2,6-dimethoxybenzenesulfonamide]

0.0%RH-80.0%RH [3]: 19.91%
Crystal form [3]: No change
Structure (SMILES): COc1cccc(OC)c1S(=O)(=O)Nc1noc2cc(Cn3cccn3)c3c(c12)OCCC3 [Crystal form H, N-(5-((1H-pyrazol-1-yl)methyl)-3,4-dihydro-2H-chromeno[8,7-d]isoxazol-9-yl)-2,6-dimethoxybenzenesulfonamide]
